System: bovine cardiac myofibrils
Test: Myofibril assay: PK/LDH-coupled steady-state ATPase activity of skinned bovine cardiac myofibrils
Format: biochemical
Conditions: Ca2+ activating to 75% of maximal rate
Method in brief: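 Steady-state ATPase of detergent-skinned bovine left-ventricular myofibrils (1 mg/mL), PK/LDH-coupled NADH read at 340 nm, in PIPES/MgCl2 buffer pH 6.8 with 50 μM ATP, 0.6 mM EGTA and CaCl2 set for 50% or 75% activation. Inhibition of activity measured.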

## CC(=O)N1CC(CC2C(=O)N(c3ncc(Cl)cc3F)CC(=O)N2Cc2ccc(Cl)cc2)C1 (stereo not drawn) [Compound 662, 3-((1-acetylazetidin-3-yl)methyl)-l-(5-chloro-3-fluoropyridin-2-yl)-4-(4-chlorobenzyl)piperazine-2,5-dione]
  CDMF75 IC15: 16.4 µM

## Cc1cc(Cl)cnc1N1CC(=O)N(Cc2ccc(Cl)cc2)C(C2(C)COC2)C1=O (centres unmarked) [Compound 663, 1-(5-chloro-3-methylpyridin-2-yl)-4-(4-chlorobenzyl)-3-(3-methyloxetan-3-yl)-piperazine-2,5-dione]
  CDMF75 IC15: 7.3 µM

## Cc1ccc(CN2C(=O)CN(c3ncc(Cl)cc3F)C(=O)C2C2COC2)cc1F (centres unmarked) [Compound 664, 1-(5-chloro-3-fluoropyridin-2-yl)-4-(3-fluoro-4-methylbenzyl)-3-(oxetan-3-yl)piperazine-2,5-dione]
  CDMF75 IC15: 2.9 µM

## CCc1ccc(CN2C(=O)CN(c3ncc(Cl)cc3F)C(=O)C2C2COC2)cc1 (centres unmarked) [Compound 665, 1-(5-chloro-3-fluoropyridin-2-yl)-4-(4-ethylbenzyl)-3-(oxetan-3-yl)piperazine-2,5-dione]
  CDMF75 IC15: 7.3 µM

## Cc1ccc(CN2C(=O)CN(c3ncc(Cl)cc3F)C(=O)C2C2COC2)cc1 (centres unmarked) [Compound 666, 1-(5-chloro-3-fluoropyridin-2-yl)-4-(4-methylbenzyl)-3-(oxetan-3-yl)piperazine-2,5-dione]
  CDMF75 IC15: 2.3 µM

## Cc1cc(CN2C(=O)CN(c3ncc(Cl)cc3F)C(=O)C2C2COC2)ccc1F (centres unmarked) [Compound 667, 1-(5-chloro-3-fluoropyridin-2-yl)-4-(4-fluoro-3-methyl-benzyl)-3-(oxetan-3-yl)-piperazine-2,5-dione]
  CDMF75 IC15: 1.1 µM

## O=C1C(C2COC2)N(Cc2ccc(F)c(Cl)c2)C(=O)CN1c1ncc(Cl)cc1F (centres unmarked) [Compound 668, 1-(5-chloro-3-fluoropyridin-2-yl)-4-(3-chloro-4-fluorobenzyl)-3-(oxetan-3-yl)piperazine-2,5-dione]
  CDMF75 IC15: 1.4 µM

## O=C1C(C2CCSCC2)N(Cc2ccc(C(F)(F)F)cc2)C(=O)CN1c1ncc(Cl)cc1F (centres unmarked) [Compound 687, 1-(5-chloro-3-fluoropyridin-2-yl)-3-(tetrahydro-2H-thiopyran-4-yl)-4-(4-(trifluoromethyl)benzyl)-piperazine-2,5-dione]
  CDMF75 IC15: 6.2 µM

## O=C1C(C2CCOCC2)N(Cc2ccc(C(F)(F)F)cc2)C(=O)CN1c1ncc(Cl)cc1F (centres unmarked) [Compound 688, 1-(5-chloro-3-fluoropyridin-2-yl)-3-(tetrahydro-2H-pyran-4-yl)-4-(4-(trifluoro-methyl)benzyl)piperazine-2,5-dione]
  CDMF75 IC15: 3.7 µM

## O=C1C(C2CCS(=O)(=O)CC2)N(Cc2ccc(C(F)(F)F)cc2)C(=O)CN1c1ncc(Cl)cc1F (centres unmarked) [Compound 689, 1-(5-chloro-3-fluoropyridin-2-yl)-3-(1,1-dioxidotetra-hydro-2H-thiopyran-4-yl)-4-(4-(trifluoromethyl)-benzyl)piperazine-2,5-dione]
  CDMF75 IC15: 27.9 µM

## O=C1C(C2COC2)N(Cc2ccc(F)cc2)C(=O)CN1c1ccc(Br)cc1F (centres unmarked) [Compound 700, 1-(4-bromo-2-fluoro-phenyl)-4-(4-fluorobenzyl)-3-(oxetan-3-yl)piperazine-2,5-dione]
  CDMF75 IC15: 3.4 µM

## CC(=O)N1CC2(C1)C(=O)N(c1ccc(-c3ncon3)cc1F)CC(=O)N2Cc1ccc(C(F)(F)F)cc1 [Compound 701, 2-acetyl-8-(2-fluoro-4-(1,2,4-oxadiazol-3-yl)phenyl)-5-(4-(trifluoromethyl)benzyl)-2,5,8-triazaspiro[3.5]nonane-6,9-dione]
  CDMF75 IC15: 3.9 µM

## CC(=O)N1CC2(C1)C(=O)N(c1ccc(-c3noc(C)n3)cc1F)CC(=O)N2Cc1ccc(C(F)(F)F)cc1 [Compound 702]
  CDMF75 IC15: 25.5 µM

## N#Cc1ccc(N2CC(=O)N(Cc3ccc(F)cc3)C(C3COC3)C2=O)c(F)c1 (centres unmarked) [Compound 706, 3-fluoro-4-(4-(4-fluoro-benzyl)-3-(oxetan-3-yl)-2,5-dioxopiperazin-1-yl)benzonitrile]
  CDMF75 IC15: 4.5 µM

## O=C1C(C2COC2)N(Cc2ccc(F)cc2)C(=O)CN1c1ncc(Br)cc1F (centres unmarked) [Compound 707, 1-(5-bromo-3-fluoropyridin-2-yl)-4-(4-fluorobenzyl)-3-(oxetan-3-yl)piperazine-2,5-dione]
  CDMF75 IC15: 2.9 µM

## O=C1C(C2COC2)N(Cc2ccc(Cl)cc2)C(=O)CN1c1ncc(Br)cc1F (centres unmarked) [Compound 708, 1-(5-bromo-3-fluoropyridin-2-yl)-4-(4-chlorobenzyl)-3-(oxetan-3-yl)piperazine-2,5-dione]
  CDMF75 IC15: 1.4 µM

## O=C1C(C2COC2)N(Cc2ccc(C(F)(F)F)cc2)C(=O)CN1c1ncc(OC(F)F)cc1F (centres unmarked) [Compound 711, 1-(5-(difluoromethoxy)-3-fluoropyridin-2-yl)-3-(oxetan-3-yl)-4-(4-(trifluoromethyl)benzyl)-piperazine-2,5-dione]
  CDMF75 IC15: 24.6 µM

## Cc1cc(Cl)cnc1N1CC(=O)N(Cc2ccc(F)cc2)C(C2COC2)C1=O (centres unmarked) [Compound 714, 1-(5-chloro-3-methylpyridin-2-yl)-4-(4-fluorobenzyl)-3-(oxetan-3-yl)piperazine-2,5-dione]
  CDMF75 IC15: 12.4 µM

## Cc1cc(Cl)cnc1N1CC(=O)N(Cc2ccc(F)c(Cl)c2)C(C2COC2)C1=O (centres unmarked) [Compound 717, 1-(5-chloro-3-methyl-pyridin-2-yl)-4-(3-chloro-4-fluorobenzyl)-3-(oxetan-3-yl)piperazine-2,5-dione]
  CDMF75 IC15: 7.3 µM

## Cc1cc(Cl)cnc1N1CC(=O)N(Cc2ccc(F)c(F)c2)C(C2COC2)C1=O (centres unmarked) [Compound 720, 1-(5-chloro-3-methyl-pyridin-2-yl)-4-(3,4-difluorobenzyl)-3-(oxetan-3-yl)piperazine-2,5-dione]
  CDMF75 IC15: 9.2 µM

## C=Cc1cnc(N2CC(=O)N(Cc3ccc(Cl)cc3)C(C3COC3)C2=O)c(F)c1 (centres unmarked) [Compound 723, 4-(4-chlorobenzyl)-1-(3-fluoro-5-vinylpyridin-2-yl)-3-(oxetan-3-yl)piperazine-2,5-dione]
  CDMF75 IC15: 7.1 µM

## Cc1ccc(CN2C(=O)CN(c3ncc(Cl)cc3C)C(=O)C2C2COC2)cc1F (centres unmarked) [Compound 724, 1-(5-chloro-3-methyl-pyridin-2-yl)-4-(3-fluoro-4-methylbenzyl)-3-(oxetan-3-yl)piperazine-2,5-dione]
  CDMF75 IC15: 13.8 µM

## Cc1cc(CN2C(=O)CN(c3ncc(Cl)cc3C)C(=O)C2C2COC2)ccc1F (centres unmarked) [Compound 727, 1-(5-chloro-3-methyl-pyridin-2-yl)-4-(4-fluoro-3-methylbenzyl)-3-(oxetan-3-yl)piperazine-2,5-dione]
  CDMF75 IC15: 3.2 µM

## Cc1cc(Cl)cnc1N1CC(=O)N(Cc2ccc(Cl)c(F)c2)C(C2COC2)C1=O (centres unmarked) [Compound 730, 4-(4-chloro-3-fluoro-benzyl)-1-(5-chloro-3-methylpyridin-2-yl)-3-(oxetan-3-yl)-piperazine-2,5-dione]
  CDMF75 IC15: 3.4 µM

## Cc1ccc(CN2C(=O)CN(c3ncc(Cl)cc3C)C(=O)C2C2COC2)cc1 (centres unmarked) [Compound 733, 1-(5-chloro-3-methyl-pyridin-2-yl)-4-(4-methyl-benzyl)-3-(oxetan-3-yl)-piperazine-2,5-dione]
  CDMF75 IC15: 11.8 µM

## N#Cc1cnc(N2CC(=O)N(Cc3ccc(C(F)(F)F)cc3)C(C3COC3)C2=O)c(F)c1 (centres unmarked) [Compound 736, 5-fluoro-6-(3-(oxetan-3-yl)-2,5-dioxo-4-(4-(trifluoromethyl)benzyl)-piperazin-1-yl)nicotinonitrile]
  CDMF75 IC15: 2.0 µM

## O=C1C([C@H]2C[C@@H](O)C2)N(Cc2ccc(C(F)(F)F)cc2)C(=O)CN1c1ncc(Cl)cc1F (some centres unmarked) [Compound 739, 1-(5-chloro-3-fluoropyridin-2-yl)-3-((1 s,3s)-3-hydroxycyclobutyl)-4-(4-(trifluoromethyl)benzyl)piperazine-2,5-dione]
  CDMF75 IC15: 2.2 µM

## O=C1C(C2CC(O)C2)N(Cc2ccc(C(F)(F)F)cc2)C(=O)CN1c1ncc(Cl)cc1F (centres unmarked) [Compound 740, 1-(5-chloro-3-fluoropyridin-2-yl)-3-(3-hydroxycyclobutyl)-4-(4-(trifluoromethyl)benzyl)piperazine-2,5-dione]
  CDMF75 IC15: 2.3 µM

## O=C1C(C2COC2)N(Cc2ccc(C(F)(F)F)cc2)C(=O)CN1c1ccc(Cl)c(F)c1 (centres unmarked) [Compound 747, 1-(4-chloro-3-fluorophenyl)-3-(oxetan-3-yl)-4-(4-(trifluoromethyl)benzyl)-piperazine-2,5-dione]
  CDMF75 IC15: 3.7 µM

## O=C1[C@H](C2CC2)N(Cc2ccc(C(F)(F)F)cc2)C(=O)CN1c1ncc(Cl)cc1F [Compound 750, (S)-1-(5-chloro-3-fluoropyridin-2-yl)-3-cyclopropyl-4-(4-(trifluoromethyl)benzyl)piperazine-2,5-dione]
  CDMF75 IC15: 1.0 µM

## O=C1[C@H](C2CC2)N(Cc2ccc(F)cc2)C(=O)CN1c1ncc(Cl)cc1F [Compound 751, (S)-1-(5-chloro-3-fluoro-pyridin-2-yl)-3-cyclo-propyl-4-(4-fluorobenzyl)-piperazine-2,5-dione]
  CDMF75 IC15: 1.3 µM

## Cc1ccc(CN2C(=O)CN(c3ncc(Cl)cc3F)C(=O)C23COC3)cc1 [Compound 757, 8-(5-chloro-3-fluoropyrldin-2-yl)-5-(4-methylbenzyl)-2-oxa-5,8-diazaspiro[3.5]-nonane-6,9-dione]
  CDMF75 IC15: 7.2 µM

## COc1cnc(N2CC(=O)N(Cc3ccc(C)cc3)C(C3COC3)C2=O)c(F)c1 (centres unmarked) [Compound 758, 1-(3-fluoro-5-methoxy-pyridin-2-yl)-4-(4-methyl-benzyl)-3-(oxetan-3-yl)-piperazine-2,5-dione]
  CDMF75 IC15: 19.4 µM

## COc1cnc(N2CC(=O)N(Cc3ccc(C)c(F)c3)C(C3COC3)C2=O)c(F)c1 (centres unmarked) [Compound 761, 4-(3-fluoro-4-methyl-benzyl)-1-(3-fluoro-5-methoxypyridin-2-yl)-3-(oxetan-3-yl)piperazine-2,5-dione]
  CDMF75 IC15: 16.3 µM

## O=C1CN(c2ncc(Cl)cc2F)C(=O)C2(CC(O)C2)N1Cc1ccc(F)cc1 (centres unmarked) [Compound 764, 8-(5-chloro-3-fluoropyridin-2-yl)-5-(4-fluorobenzyl)-2-hydroxy-5,8-diazaspiro-[3.5]nonane-6,9-dione]
  CDMF75 IC15: 1.6 µM

From patent publication US11414424B2, “Cardiac sarcomere inhibitors” (Cytokinetics, Inc., priority 2018, dated 2022)
